Assay results taken from patent US8828942B2, “Means for treating synucleinopathies” (Affiris AG, priority 2009, dated 2014).
“Also recorded” adds a separate entry of the source.

Columns and labels:
[1] = tested on: monoclonal antibody 12-9-9; experiment: In vitro binding assay (ELISA) with monoclonal antibody 12-9-9; design: species or system mouse; key to Binding: 0: no binding to 12-9-9 detectable in ELISA; 1: weak binding: binding of mimotope weaker compared to the minimal original sequence p5436; 2: strong binding: binding of mimotope similar to the minimal original sequence p5436; conditions: for Binding: binding capacity to 12-9-9 in ELISA, peptide-BSA coated (1 μM), compared with p5436; for detection/binding by monoclonal antibody 12-9-9 in ELISA: result in words
Description: A monoclonal antibody derived from the fusion “AFFiRiS 6”: Balb/c mice (Charles River) were immunized with original alpha-synuclein epitope LGKNEEGAPQ-C (SEQ ID NO:3) coupled to BTG (bovine thyroglobuline) and CFA (complete Freund's adjuvant; first injection) as well as IFA (incomplete Freund's adjuvant; 3 booster injections) as adjuvant. LGKNEEGAPQ-peptide-specific (SEQ ID NO: 203) antibody-producing hybridomas are detected by ELISA (LGKNEEGAPQC-peptide-coated (SEQ ID NO: 3)ELISA plates). Human alpha-synuclein (recombinant protein, p4446) is used as positive control peptide: hybridomas recognizing the recombinant protein immobilized on ELISA plates are included because they are binding both peptide and full length alpha-synuclein specifically. […] The Hybridoma clone (12-9-9; IgG1, kappa) was analysed for specific detection of the natural human alpha-synuclein epitope LGKNEEGAPQ. (SEQ ID NO: 203). 12-9-9 recognizes the injected epitope as well as full length alpha-synuclein protein (recombinant protein; obtained from rPeptide, Bogart, Ga., USA) in ELISA (see FIG. 2). […] Thus the minimal required epitope for binding has been defined as KNEEGAP (SEQ ID NO: 139).
Peptides derived from Phage Display as well as N-terminally truncated variants thereof were coupled to BSA and bound to ELISA plates (1 μM) and subsequently incubated with the monoclonal antibody that was used for the screening procedure to analyse binding capacity of identified peptides (see FIG. 4).

[2] = tested on: monoclonal antibody 12-9-9; experiment: In vitro inhibition assay (ELISA); format: binding, mouse; design: key: 0: no competition of 12-9-9 detectable in ELISA; 1: weak competition: competition of mimotope weaker compared to the minimal original sequence p5436; 2: strong competition: competition of mimotope similar to the minimal original sequence p5436; conditions: competition capacity in ELISA, peptide 400 μg/ml to 3 μg/ml, plates coated with p5436 and p4446
Description: Different amounts of peptides (concentrations ranging from 400 μg/ml to 3 μg/ml (serial dilutions), derived from Phage Display were incubated with the monoclonal antibody that was used for the screening procedure. Peptides diminishing subsequent binding of the antibody to the original human alpha-synuclein epitope (p5436) and the human alpha-synuclein protein (p4446) coated on ELISA plates were considered as inhibiting in this assay.

[3] = tested on: recombinant human alpha-synuclein protein; experiment: In vivo testing of mimotopes: serum titer against alpha-synuclein (ELISA); conditions: mice immunized with peptide-KLH, alum, OD halfmax
Description: (§1) Inhibiting as well as non-inhibiting peptides were coupled to KLH and injected into mice (wildtype C57/B16 or BalbC mice; subcutaneous injection into the flank) together with an appropriate adjuvant (aluminium hydroxide). Animals were vaccinated 3 times in biweekly intervals and sera were taken biweekly as well. Titers to injected peptides as well as to an irrelevant peptide were determined with every serum. Titers against the recombinant human alpha-synuclein protein and recombinant human beta-synuclein were determined starting with Serum 2 respectively. In general sera were analysed by reaction against peptides coupled to Bovine Serum Albumin (BSA) and recombinant full length proteins which were immobilised on ELISA plates. Titers were determined using anti mouse IgG specific antibodies. For examples of immunogenicity against injected peptide and alpha-synuclein see Table 5 and Table 6.
(§2) Female C57/B16 mice or BalbC, 5-6 mice per group, were subcutaneously immunized with 30 μg peptide coupled to KLH. Control groups were injected with PBS or the original epitope. As adjuvant alum was used. The peptides administered were all able to bind to monoclonal antibodies specifically binding aa100-109 of human alpha-synuclein although some of the peptides did inhibit the binding of the original epitope to its parental antibody in vitro only weakly (in an in vitro inhibition assay). The in vitro ELISA assay to determine the antibody titer was performed with sera of single mice (see Tab. 5) after each vaccination in a two week interval. The wells of the ELISA plate were coated with mimotope-BSA conjugates. The positive control was performed by reaction of the parental antibody with the respective mimotope-BSA conjugate. The detection was performed with anti-mouse IgG. Additionally, recombinant proteins were immobilised on ELISA plates and sera reacted accordingly. For all mimotopes tested in C57/B16 mice or BalbC, antibodies reacting to the individual injected peptide could be detected after repeated vaccination. Although not all mice induced higher titer against alpha-synuclein (see tab. 5 for examples).

[4] = In vivo testing of mimotopes: serum titer against injected peptide (ELISA); conditions: mice, 30 μg peptide coupled to KLH, alum, s.c.; titer by ELISA as OD halfmax
Description: as §1, §2

Substance | Binding [1] | further results
ANDEGAPC [p5591, mimotope] | 2 | 
ANEEGAPC [p5437, mimotope] | 2 | 
APSWKGEC [p5556, mimotope] | 2 | Competition [2]: 1; class of immunogenicity: a Syn [3]: 0 (peptides inducing no immune response or a very low immune response with OD halfmax around 50 or lower.)
ASEEGAPC [p5594, mimotope] | 1 | 
Alpha-synuclein [p4446] | 2 | detection/binding by monoclonal antibody 12-9-9 in ELISA [1]: detected; also recorded: retained full binding capacities; detection/binding by monoclonal antibody 12-9-9 in ELISA ([1]; listed as Alpha-Synuclein): detected similarly; detection/binding by monoclonal antibody 12-9-9 in ELISA ([1]; listed as alpha-synuclein protein): recognizes
Beta-Synuclein [p4447] |  | detection/binding by monoclonal antibody 12-9-9 in ELISA [1]: not detected; detection/binding by monoclonal antibody 12-9-9 in ELISA ([1]; listed as beta-synuclein protein): does not detect
CKNEEGAP [p5435, reference compound] | 2 | Competition [2]: 1
CTPSWKGE [p5560, mimotope] | 2 | 
DPSFALEC [p5465, mimotope] | 2 | class of immunogenicity: a Syn [3]: 0 (peptides inducing no immune response or a very low immune response with OD halfmax around 50 or lower.)
EEGAPQC [p5400, reference compound] |  | detection/binding by monoclonal antibody 12-9-9 in ELISA [1]: lost binding
EGAPQC [p5401, reference compound] |  | detection/binding by monoclonal antibody 12-9-9 in ELISA [1]: lost binding
GKNEEGAPQC [p5397, reference compound] | 2 | Competition [2]: 2; detection/binding by monoclonal antibody 12-9-9 in ELISA [1]: retained full binding capacities
HNAEGAPC [p5598, mimotope] | 1 | 
HNDEGAPC [p5596, mimotope] | 2 | 
HNEEGAPC [p5444, mimotope] | 2 | detection/binding by monoclonal antibody 12-9-9 in ELISA [1]: detected much weaker than the human epitope
HSAEGAPC [p5604, mimotope] | 1 | 
HSDEGAPC [p5608, mimotope] | 1 | 
HSEEGAPC [p5593, mimotope] | 1 | 
KAEEGAPC [p5438, mimotope] | 1 | 
KNDDGAPC [p5449, mimotope] | 2 | Competition [2]: 1

Substance | Binding [1] | further results
KNEAGAPC [p5440, mimotope] |  | detection/binding by monoclonal antibody 12-9-9 in ELISA [1]: not detected
KNEDGAPC [p5446, mimotope] | 2 | Competition [2]: 1
KNEEGAPQC [p5398, reference compound] | 2 | Competition [2]: 2; detection/binding by monoclonal antibody 12-9-9 in ELISA [1]: retained full binding capacities
KPSFKNEC [p5461, mimotope] | 2 | class of immunogenicity: a Syn [3]: 0 (peptides inducing no immune response or a very low immune response with OD halfmax around 50 or lower.)
KQEEGAPC [p5447, mimotope] | 2 | 
KSAEGAPC [p5599, mimotope] | 2 | 
KSDEGAPC [p5600, mimotope] | 2 | Competition [2]: 1; class of immunogenicity: a Syn [3]: 1 (peptides inducing an immune response with OD halfmax between 1000 and 51.)
KSEDGAPC [p5601, mimotope] | 2 | 
KSEEGAPC [p5448, mimotope] | 2 | Competition [2]: 1
LGKNEC [p5406, reference compound] |  | detection/binding by monoclonal antibody 12-9-9 in ELISA [1]: lost binding
LGKNEEC [p5405, reference compound] |  | detection/binding by monoclonal antibody 12-9-9 in ELISA [1]: lost binding
LGKNEEGAC [p5403, reference compound] |  | detection/binding by monoclonal antibody 12-9-9 in ELISA [1]: lost binding
LGKNEEGAPQC [p4453, reference compound] | 2 | detection/binding by monoclonal antibody 12-9-9 in ELISA [1]: detected; also recorded: retained full binding capacities
LGKNEEGC [p5404, reference compound] |  | detection/binding by monoclonal antibody 12-9-9 in ELISA [1]: lost binding
LPSFRLEC [p5466, mimotope] | 1 | class of immunogenicity: a Syn [3]: 0 (peptides inducing no immune response or a very low immune response with OD halfmax around 50 or lower.)
MGKGEEGYPQC [p4454, reference compound] | 2 | Titer in animals OD halfmax injected pep. [4]: 17000; class of immunogenicity: a Syn [3]: 1 (peptides inducing an immune response with OD halfmax between 1000 and 51.)
NEEGAPQC [p5399, reference compound] |  | detection/binding by monoclonal antibody 12-9-9 in ELISA [1]: lost binding
QASFAMEC [p5547, mimotope] | 1 | 
QASSKLDC [p5549, mimotope] | 1 | 
QPSFAMEC [p5462, mimotope] | 2 | class of immunogenicity: a Syn [3]: 0 (peptides inducing no immune response or a very low immune response with OD halfmax around 50 or lower.)

Substance | Binding [1] | further results
QPSSKLDC [p5468, mimotope] | 2 | class of immunogenicity: a Syn [3]: 0 (peptides inducing no immune response or a very low immune response with OD halfmax around 50 or lower.)
RNAEGAPC [p5597, mimotope] | 2 | Competition [2]: 1; class of immunogenicity: a Syn [3]: 1 (peptides inducing an immune response with OD halfmax between 1000 and 51.)
RNDEGAPC [p5587, mimotope] | 2 | Competition [2]: 2; class of immunogenicity: a Syn [3]: 1 (peptides inducing an immune response with OD halfmax between 1000 and 51.)
RNEDGAPC [p5588, mimotope] | 2 | Competition [2]: 1
RQDDGAPC [p5610, mimotope] | 2 | 
RQDEGAPC [p5602, mimotope] | 2 | Competition [2]: 1
RQEDGAPC [p5603, mimotope] | 2 | Competition [2]: 1
RQEEGAPC [p5589, mimotope] | 2 | 
RSAEGAPC [p5605, mimotope] | 2 | 
RSDEGAPC [p5606, mimotope] | 2 | 
RSEDGAPC [p5607, mimotope] | 2 | 
RSEEGAPC [p5590, mimotope] | 2 | Competition [2]: 1; class of immunogenicity: a Syn [3]: 1 (peptides inducing an immune response with OD halfmax between 1000 and 51.)
SPSFKQEC [p5463, mimotope] | 2 | class of immunogenicity: a Syn [3]: 0 (peptides inducing no immune response or a very low immune response with OD halfmax around 50 or lower.)
TASWKGEC [p5548, mimotope] | 2 | Competition [2]: 1
TPAWKGEC [p5551, mimotope] | 1 | 
TPSAKGEC [p5557, mimotope] |  | Competition [2]: 1
TPSWAGEC [p5558, mimotope] | 2 | 
TPSWKGEC [p5464, mimotope] | 2 | Competition [2]: 1; class of immunogenicity: a Syn [3]: 0 (peptides inducing no immune response or a very low immune response with OD halfmax around 50 or lower.)
